Experimental findings from patent publication US9233983B2, “Substituted hetero-bicyclic compounds, compositions and medicinal applications thereof” (ADVINUS THERAPEUTICS LIMITED, priority 2012, dated 2016) are described below.

What is called IC50 is the point on the concentration scale where inhibition reaches its midpoint.

SMILES strings stand for the structures. Like-named read-outs stand apart in the source and are kept apart here.

The test system of experiment [1] is mouse splenocytes. The experiment is described as follows: Inhibition of B Cell Activation as Measured by CD69 Expression in Mouse Splenocytes. It is filed as cell-based. The conditions noted are these: Splenocyte. On the procedure: Inhibition of B Cell Activation as Measured by CD69 Expression in Mouse Splenocytes:
To test the effect of BTK inhibitors in suppressing B-cell receptor (BCR) mediated activation of B cells, we developed a flow cytometry based assay to analyze CD69 expression in B cell population among total splenocyte from the mouse. […] Finally, cell were cultured in RPMI medium with 10% FBS.
Test compounds were diluted half log starting from 2 mM in 100% DMSO (200×). 1×10^5 splenocytes were incubated with 1 uL of diluted test compounds in 200 uL culture medium in a U-bottom 96 well plate (Greiner) at 37° C. with 5% CO2 for 30 mins. Control wells received 1 uL of 100% DMSO without any compound. The cells were stimulated with 3 ug/mL goat anti-mouse IgM (Sigma, cat#M8644) and incubated for 18-20 hrs. […] Then the cells were washed 3 times with PBS with 1% FBS and analyzed by Guava Easycyte Mini flow cytometer system (Millipore). Flow cytometry data were analyzed using Weasel software (WEHI, Melbourne). First B cells were gated using CD19 markers. Then expression of CD69 was analyzed as percentage of CD69+ve cells within CD19. Percent activity for each data point was calculated using following formula: […]
Percentage activity was fit using sigmoid dose response with variable slope logistic equation in Graph-pad Prism 5 software to determine inhibition constant 50 (IC50).

The target of experiment [2] is human Bruton's Tyrosine Kinase (Btk) (Homo sapiens (Human), UniProt Q06187). The experiment is described as follows: Recombinant Human Bruton's Tyrosine Kinase (Btk) Inhibition Assay (HTRF KinEASE-TK). Type of experiment: biochemical. The conditions noted are these: read-out: hBTK IC50.
[3] abbreviates: C57/BL6 splenocytes, 3 ug/mL goat anti-mouse IgM, 18-20 hrs, CD69+ve cells within CD19, read-out: Mouse spleenocyte IC50.
[4] abbreviates: 20 ng/ml rhBtk, 77 μM ATP (KM), 1 μM TK-Biotin substrate, 90 min.

Sequence of human Bruton's Tyrosine Kinase (Btk) (Q06187 whole entry): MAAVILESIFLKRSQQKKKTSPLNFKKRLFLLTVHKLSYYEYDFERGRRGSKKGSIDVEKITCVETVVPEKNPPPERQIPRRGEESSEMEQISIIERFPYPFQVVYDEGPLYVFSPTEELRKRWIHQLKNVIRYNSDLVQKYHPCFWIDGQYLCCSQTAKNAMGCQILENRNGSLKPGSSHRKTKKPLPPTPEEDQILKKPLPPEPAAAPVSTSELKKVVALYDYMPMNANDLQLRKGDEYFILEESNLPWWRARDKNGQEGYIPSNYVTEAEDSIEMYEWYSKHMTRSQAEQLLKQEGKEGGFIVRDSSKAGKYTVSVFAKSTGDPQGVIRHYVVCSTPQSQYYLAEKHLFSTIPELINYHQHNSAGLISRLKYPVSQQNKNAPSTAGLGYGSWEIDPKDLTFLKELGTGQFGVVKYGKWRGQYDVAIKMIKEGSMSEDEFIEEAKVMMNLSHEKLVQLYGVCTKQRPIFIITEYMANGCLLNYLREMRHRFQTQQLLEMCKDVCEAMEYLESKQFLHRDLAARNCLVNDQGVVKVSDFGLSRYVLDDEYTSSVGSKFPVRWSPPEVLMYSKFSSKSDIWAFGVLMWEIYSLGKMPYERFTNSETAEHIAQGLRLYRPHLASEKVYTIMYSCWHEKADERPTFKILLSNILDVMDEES

On to `Cc1c(-c2ncnc3[nH]c(-c4ccc(CN5CCNCC5)cc4)cc23)cccc1N1CCOc2cc(C3CC3)ccc2C1=O` [Example A-1, 8-cyclopropyl-4-[2-methyl-3-[6-[4-(piperazin-1-ylmethyl)phenyl]-7H-pyrrolo[2,3-d]pyrimidin-4-yl]phenyl]-2,3-dihydro-1,4-benzoxazepin-5-one], for which the IC50 was determined as 99 nM in experiment [1] (setting [3]) and 7 nM in experiment [2] (setting [4]).

Turning to `Cc1c(-c2ncnc3[nH]c(-c4ccc(CN5CCNCC5)cc4)cc23)cccc1N1CCc2cc(C3CC3)ccc2C1=O` [Example A-2, 6-cyclopropyl-2-[2-methyl-3-[6-[4-(piperazin-1-ylmethyl)phenyl]-7H-pyrrolo[2,3-d]pyrimidin-4-yl]phenyl]-3,4-dihydroisoquinolin-1-one], the IC50 in experiment [1] (setting [3]) was found to be 165 nM; in experiment [2] (setting [4]) it was 7 nM.

Consider `CN1CCN(Cc2ccc(-c3cc4c(-c5cccc(N6CCOc7cc(C8CC8)ccc7C6=O)c5CO)ncnc4[nH]3)cc2)CC1` [Example B-1, 8-cyclopropyl-4-[2-(hydroxymethyl)-3-[6-[4-[(4-methylpiperazin-1-yl)methyl]phenyl]-7H-pyrrolo[2,3-d]pyrimidin-4-yl]phenyl]-2,3-dihydro-1,4-benzoxazepin-5-one], for which the results for the IC50 in experiment [1] (setting [3]) and in experiment [2] (setting [4]) were 40 nM and 6 nM, respectively.

`Cc1c(-c2ncnc3[nH]c(-c4ccc(CN5CCN(C)CC5)cc4)cc23)cccc1N1CCOc2cc(C3CC3)ccc2C1=O` [Example B-2]: the IC50 in experiment [1] (setting [3]) came to 200 nM; in experiment [2] (setting [4]), 31 nM.

With `O=C1c2ccc(C3CC3)cc2OCCN1c1cccc(-c2ncnc3[nH]c(-c4ccc(CN5CCOCC5)cc4)cc23)c1CO` [Example B-5, 8-cyclopropyl-4-[2-(hydroxymethyl)-3-[6-[4-(morpholinomethyl)phenyl]-7H-pyrrolo[2,3-d]pyrimidin-4-yl]phenyl]-2,3-dihydro-l,4-benzoxazepin-5-one], the IC50 in experiment [1] (setting [3]) came to 60 nM; in experiment [2] (setting [4]) it was 8 nM.

As for `CC1(O)CCN(Cc2ccc(-c3cc4c(-c5cccc(N6CCOc7cc(C8CC8)ccc7C6=O)c5CO)ncnc4[nH]3)cc2)CC1` [Example B-6, 8-cyclopropyl-4-[2-(hydroxymethyl)-3-[6-[4-[(4-hydroxy-4-methyl-1-piperidyl)methyl]phenyl]-7H-pyrrolo[2,3-d]pyrimidin-4-yl]phenyl]-2,3-dihydro-1,4-benzoxazepin-5-one], the IC50 is 81 nM in experiment [1] (Mus musculus, read-out: Mouse spleenocyte IC50 (nM)) and 7 nM in experiment [2].

For the compound `CCN1CCN(Cc2ccc(-c3cc4c(-c5cccc(N6CCOc7cc(C8CC8)ccc7C6=O)c5CO)ncnc4[nH]3)cc2)CC1` [Example B-7, 8-cyclopropyl-4-[3-[6-[4-[(4-ethylpiperazin-1-yl)methyl]phenyl]-7H-pyrrolo[2,3-d]pyrimidin-4-yl]-2-(hydroxymethyl)phenyl]-2,3-dihydro-1,4-benzoxazepin-5-one], the IC50 in experiment [1] (setting [3]) was 52 nM; in experiment [2] (setting [4]) it was 6 nM.

`CN1CCN(Cc2ccc(-c3cc4c(-c5cccc(-n6ncc7cc(C8CC8)ccc7c6=O)c5CO)ncnc4[nH]3)cc2)CC1` [Example B-10, 6-cyclopropyl-2-[2-(hydroxymethyl)-3-[6-[4-[(4-methylpiperazin-1-yl)methyl]phenyl]-7H-pyrrolo[2,3-d]pyrimidin-4-yl]phenyl]phthalazin-1-one]: the IC50 in experiment [1] (setting [3]) was determined as 20 nM; in experiment [2] (setting [4]), 2 nM.

Take `CN1CCN(Cc2ccc(-c3cc4c(-c5cccc(N6CCOc7cc(C8CC8)ccc7C6=O)c5CO)ccnc4[nH]3)cc2)CC1` [Example B-13, 8-cyclopropyl-4-[2-(hydroxymethyl)-3-[2-[4-[(4-methylpiperazin-1-yl)methyl]phenyl]-1H-pyrrolo[2,3-b]pyridin-4-yl]phenyl]-2,3-dihydro-1,4-benzoxazepin-5-one]: the IC50 worked out at 9 nM in experiment [1] (setting [3]) and 3 nM in experiment [2] (setting [4]).

As for `N#CC1CCN(Cc2ccc(-c3cc4c(-c5cccc(N6CCOc7cc(C8CC8)ccc7C6=O)c5CO)ncnc4[nH]3)cc2)CC1` [Example B-14, 1-[[4-[4-[3-(8-cyclopropyl-5-oxo-2,3-dihydro-1,4-benzoxazepin-4-yl)-2-(hydroxymethyl)phenyl]-7H-pyrrolo[2,3-d]pyrimidin-6-yl]phenyl]methyl]piperidine-4-carbonitrile], the IC50 in experiment [1] (setting [3]) was 96 nM; in experiment [2] (setting [4]), 7 nM.

`CCN1CCN(Cc2ccc(-c3cc4c(-c5cccc(N6CCOc7cc(C8CC8)ccc7C6=O)c5CO)ccnc4[nH]3)cc2)CC1` [Example B-16, 8-cyclopropyl-4-[3-[2-[4-[(4-ethylpiperazin-1-yl)methyl]phenyl]-1H-pyrrolo[2,3-b]pyridin-4-yl]-2-(hydroxymethyl)phenyl]-2,3-dihydro-1,4-benzoxazepin-5-one]: the IC50 in experiment [1] (setting [3]) turned out to be 17 nM; in experiment [2] (setting [4]), 4 nM.

Regarding `CC1(O)CN(Cc2ccc(-c3cc4c(-c5cccc(N6CCOc7cc(C8CC8)ccc7C6=O)c5CO)ccnc4[nH]3)cc2)C1` [Example B-17], the IC50 is 74 nM in experiment [1] (setting [3]) and 6 nM in experiment [2] (setting [4]).

For the compound `CCN1CC(n2cc(-c3cc4c(-c5cccc(N6CCOc7cc(C8CC8)ccc7C6=O)c5CO)ccnc4[nH]3)cn2)C1` [Example D-10, 8-cyclopropyl-4-[3-[2-[1-(1-ethylazetidin-3-yl)pyrazol-4-yl]-1H-pyrrolo[2,3-b]pyridin-4-yl]-2-(hydroxymethyl)phenyl]-2,3-dihydro-1,4-benzoxazepin-5-one], the IC50 in experiment [1] (setting [3]) was found to be 76 nM.

On to `CS(=O)(=O)N1CC=C(c2cc3c(-c4cccc(N5CCOc6cc(C7CC7)cc(F)c6C5=O)c4CO)ccnc3[nH]2)CC1` [Example P-11, 8-cyclopropyl-6-fluoro-4-[2-(hydroxymethyl)-3-[2-(1-methylsulfonyl-3,6-dihydro-2H-pyridin-4-yl)-1H-pyrrolo[2,3-b]pyridin-4-yl]phenyl]-2,3-dihydro-1,4-benzoxazepin-5-one], for which the IC50 in experiment [2] (setting [4]) stood at 10 nM.

`O=C1c2c(F)cc(C3CC3)cc2OCCN1c1cccc(-c2ccnc3[nH]c(C4=CCN(C5COC5)CC4)cc23)c1CO` [Example P-12, 8-cyclopropyl-6-fluoro-4-[2-(hydroxymethyl)-3-[2-[1-(oxetan-3-yl)-3,6-dihydro-2H-pyridin-4-yl]-1H-pyrrolo[2,3-b]pyridin-4-yl]phenyl]-2,3-dihydro-1,4-benzoxazepin-5-one]: the IC50 in experiment [2] (setting [4]) is 22 nM.

Regarding `O=C(N1CC=C(c2cc3c(-c4cccc(N5CCOc6cc(C7CC7)cc(F)c6C5=O)c4CO)ccnc3[nH]2)CC1)N1CCC1` [Example P-13, 4-[3-[2-[1-(azetidine-1-carbonyl)-3,6-dihydro-2H-pyridin-4-yl]-1H-pyrrolo[2,3-b]pyridin-4-yl]-2-(hydroxymethyl)phenyl]-8-cyclopropyl-6-fluoro-2,3-dihydro-1,4-benzoxazepin-5-one], the IC50 in experiment [2] (setting [4]) is 1 nM.

Regarding `O=C1c2c(F)cc(C3CC3)cc2OCCN1c1cc(F)cc(-c2ccnc3[nH]c(C4=CCN(C5COC5)CC4)cc23)c1CO` [Example P-16, 8-cyclopropyl-6-fluoro-4-[5-fluoro-2-(hydroxymethyl)-3-[2-[1-(oxetan-3-yl)-3,6-dihydro-2H-pyridin-4-yl]-1H-pyrrolo[2,3-b]pyridin-4-yl]phenyl]-2,3-dihydro-1,4-benzoxazepin-5-one], in experiment [1] (setting [3]), the IC50 worked out at 9 nM.

Take `CS(=O)(=O)N1CC=C(c2cc3c(-c4ccnc(N5CCOc6cc(C7CC7)cc(F)c6C5=O)c4CO)ccnc3[nH]2)CC1` [Example P-25, 8-cyclopropyl-6-fluoro-4-[3-(hydroxymethyl)-4-[2-(1-methylsulfonyl-3,6-dihydro-2H-pyridin-4-yl)-1H-pyrrolo[2,3-b]pyridin-4-yl]-2-pyridyl]-2,3-dihydro-1,4-benzoxazepin-5-one]: the IC50 in experiment [2] (setting [4]) was determined as 618 nM.

Turning to `O=C1c2c(F)cc(C3CC3)cc2OCCN1c1cccc(-c2ccnc3[nH]c(-c4ccc(OCCN5CCOCC5)cn4)cc23)c1CO` [Example Q-1, 8-cyclopropyl-6-fluoro-4-[2-(hydroxymethyl)-3-[2-[5-(2-morpholinoethoxy)-2-pyridyl]-1H-pyrrolo[2,3-b]pyridin-4-yl]phenyl]-2,3-dihydro-1,4-benzoxazepin-5-one], the IC50 in experiment [2] (setting [4]) is 2.9 nM.

Regarding `O=C1c2c(F)cc(C3CC3)cc2OCCN1c1cccc(-c2ccnc3[nH]c(-c4ccc(OCCN5CCC5)cn4)cc23)c1CO` [Example Q-2, 4-[3-[2-[5-[2-(azetidin-1-yl)ethoxy]-2-pyridyl]-1H-pyrrolo[2,3-b]pyridin-4-yl]-2-(hydroxymethyl)phenyl]-8-cyclopropyl-6-fluoro-2,3-dihydro-1,4-benzoxazepin-5-one], the IC50 in experiment [2] (setting [4]) amounted to 3.1 nM.

Consider `CN1CCN(c2ccc(-c3cc4c(-c5cccc(N6CCOc7cc(C8CC8)ccc7C6=O)c5CO)ccnc4[nH]3)nc2)CC1` [Example S-3, 8-cyclopropyl-4-[2-(hydroxymethyl)-3-[2-[5-(4-methylpiperazin-1-yl)-2-pyridyl]-1H-pyrrolo[2,3-b]pyridin-4-yl]phenyl]-2,3-dihydro-1,4-benzoxazepin-5-one], for which the IC50 in experiment [2] (setting [4]) was 3 nM.
